Results: ChEMBL document CHEMBL3421618, “2,6,9-Trisubstituted purines as CRK3 kinase inhibitors with antileishmanial activity in vitro” (Bioorg Med Chem Lett, 2015)

Experiments:
[1] = Cytotoxicity against human BJ cells assessed as cell viability at 30 uM after 72 hrs by fluorescence assay relative to control
Leishmania = conditions: at 30 µM
Description: Inhibition of Leishmania CRK3/CYC6 using histone H1/[gamma33-P]ATP as substrate at 30 uM after 30 mins relative to control

Leishmania donovani = test: Leshmanicidal activity against promastigote stage of Leishmania donovani MHOM/SD/1962/1S-c12d […] after 72 hrs by alamar blue staining-based fluorescence assay; format: functional, organism-based
[2] = Leshmanicidal activity against promastigote stage of Leishmania turanica MRHO/MN/08/BZ18 after 72 hrs by alamar blue staining-based fluorescence assay; format: functional
Leishmania major = test: Leshmanicidal activity against promastigote stage of Leishmania major MHOM/IL/2003/LRC-L1025 […] after 72 hrs by alamar blue staining-based fluorescence assay; format: functional, organism-based; conditions: MHOM/IL/2003/LRC-L1025, 72 h
[3] = Inhibition of Leishmania CRK3/CYC6 using histone H1/[gamma33-P]ATP as substrate after 30 mins

| SMILES | viability at 72 h, 30 µM ([1]; BJ cells) [%] | inhibition (Leishmania) [%] | IC50 (Leishmania donovani) [µM] | IC50 [2] [µM] | IC50 (Leishmania major) [µM] | IC50 [3] [µM] | viability at 72 h, 30 µM ([1]; bj) [%] |
| --- | --- | --- | --- | --- | --- | --- | --- |
| CC(C)n1cnc2c(NCc3ccccc3)nc(NCCO)nc21 | 74.2 | 66.6 | – | – | – | – | – |
| CC[C@H](CO)Nc1nc(NCc2ccc(OC)cc2O)c2ncn(C(C)C)c2n1 | 82.3 | 53.1 | – | – | – | – | – |
| COc1cccc(CNc2nc(N[C@@H]3CCCC[C@H]3N)nc3c2ncn3C(C)C)c1O | 87.4 | 33.6 | – | – | – | – | – |
| CC(C)n1cnc2c(NCc3ccccc3)nc(NCCCCCC#N)nc21 | 77.8 | 49 | – | – | – | – | – |
| CC[C@H](CO)Nc1nc(NCc2ccc(Br)cc2)c2ncn(C(C)C)c2n1 | 92.3 | 10 | 16.8 | 20.1 | 19.4 | – | – |
| CC[C@H](CO)Nc1nc(NCc2ccc(O)cc2)c2ncn(C(C)C)c2n1 | 91.6 | 21.3 | – | – | – | – | – |
| CC(C)n1cnc2c(NCc3ccccc3)nc(NCCOCCO)nc21 | 69.9 | 56.5 | – | – | – | – | – |
| CC(C)n1cnc2c(NCc3ccccc3O)nc(NCCCO)nc21 | 85 | 10.5 | – | – | – | – | – |
| CCOC(=O)c1ccc(Nc2nc(N[C@H](CC)CO)nc3c2ncn3C(C)C)cc1 | 70.1 | 5.6 | – | – | – | – | – |
| CC[C@H](CO)Nc1nc(Nc2ccc(S(=O)(=O)NC(=N)N)cc2)c2ncn(C(C)C)c2n1 | 84.4 | 0.3 | – | > 50 | – | 0.115 | – |
| CC[C@H](CO)Nc1nc(NCc2cc(O)cc(O)c2)c2ncn(C(C)C)c2n1 | 83.9 | 15.9 | – | – | – | – | – |
| CC(C)n1cnc2c(NCc3ccccc3)nc(NCCCO)nc21 [BOHEMINE] | – | 49.2 | – | – | – | – | 120 |
| CC(C)n1cnc2c(NCc3ccc(O)cc3)nc(NCCCO)nc21 | 84.9 | 53.3 | – | – | – | – | – |
| CC(C)n1cnc2c(NCc3ccccc3O)nc(N[C@H]3CC[C@H](N)CC3)nc21 | 90.4 | 12.2 | – | – | – | – | – |
| CC[C@H](CO)Nc1nc(NCc2cccc(O)c2O)c2ncn(C(C)C)c2n1 | 80.1 | 2.6 | – | > 50 | – | 0.314 | – |
| CC[C@H](CO)Nc1nc(NCc2ccccc2)c2ncn(C(C)C)c2n1 [SELICICLIB] | 106 | 38.6 | – | – | – | – | – |
| CC(C)n1cnc2c(NCc3ccccc3)nc(N)nc21 | 72.2 | 87.1 | – | – | – | – | – |
| CC(C)n1cnc2c(NCc3ccccc3O)nc(N3CCNCC3)nc21 | 127 | 55.6 | – | – | – | – | – |
| CC[C@H](CO)Nc1nc(NCc2ccccc2O)c2ncn(C(C)C)c2n1 [OLOMOUCINE II] | 79.8 | 1.8 | 62.4 | 11.9 | 47.2 | 0.59 | – |
| CC(C)n1cnc2c(NCc3ccccc3O)nc(N3CCN(CC#N)CC3)nc21 | 91.8 | 71.7 | – | – | – | – | – |

| SMILES | viability at 72 h, 30 µM ([1]; BJ cells) [%] | inhibition (Leishmania) [%] | IC50 (Leishmania donovani) [µM] | IC50 [2] [µM] | IC50 (Leishmania major) [µM] | IC50 [3] [µM] | viability at 72 h, 30 µM ([1]; bj) [%] |
| --- | --- | --- | --- | --- | --- | --- | --- |
| CC[C@H](CO)Nc1nc(NCc2cc(O)ccc2O)c2ncn(C(C)C)c2n1 | 97.7 | 1.5 | – | > 50 | – | 0.384 | – |
| CC[C@H](CO)Nc1nc(Nc2ccc(S(=O)(=O)Nc3nc(C)cc(C)n3)cc2)c2ncn(C(C)C)c2n1 | 105 | 1.2 | – | – | – | – | – |
| CC(C)n1cnc2c(NCc3ccccc3O)nc(NCc3ccccc3O)nc21 | 97.5 | 37.8 | – | – | – | – | – |
| CC(C)n1cnc2c(NCc3ccccc3)nc(NC[C@H](O)CN)nc21 | 74.5 | 43.2 | – | – | – | – | – |
| CC(C)n1cnc2c(NCc3ccccc3)nc(N(CCO)CCO)nc21 | 133 | 47.1 | – | – | – | – | – |
| CC[C@H](CO)Nc1nc(NCc2cccc(O)c2)c2ncn(C(C)C)c2n1 | 85.6 | 36.4 | – | – | – | – | – |
| CC[C@H](CO)Nc1nc(NCc2ccccc2N)c2ncn(C(C)C)c2n1 | 95.7 | 9.8 | – | – | – | – | – |
| CC(C)n1cnc2c(NCc3ccccc3)nc(NCCCN)nc21 | 100 | 46.2 | – | – | – | – | – |
| CC[C@H](CO)Nc1nc(Nc2ccc(S(N)(=O)=O)cc2)c2ncn(C(C)C)c2n1 | 76.7 | 2.2 | – | > 50 | – | 0.214 | – |
| CC(C)n1cnc2c(NCc3cccc(O)c3)nc(NCCCO)nc21 | 74.6 | 64.6 | – | – | – | – | – |
| CC[C@H](CO)Nc1nc(NC(CO)c2ccccc2)c2ncn(C(C)C)c2n1 (stereo not given in full) | 102 | 33.5 | – | – | – | – | – |
| CC(C)n1cnc2c(NCc3ccccc3O)nc(N[C@@H]3CCCC[C@H]3N)nc21 | 98.7 | 29.4 | – | – | – | – | – |
| CC(C)n1cnc2c(NCc3ccccc3)nc(NCCN)nc21 | 95.2 | 57.5 | – | – | – | – | – |
| COc1cccc(CNc2nc(N[C@H]3CC[C@H](N)CC3)nc3c2ncn3C(C)C)c1O | 87.9 | 10.8 | – | – | – | – | – |
| CC(C)n1cnc2c(NCc3ccccc3)nc(NC[C@H](C)O)nc21 | 94.7 | 53.9 | – | – | – | – | – |
| CC[C@H](CO)Nc1nc(NCc2cccc(C)c2O)c2ncn(C(C)C)c2n1 | 82.9 | 3.3 | 12.4 | 23 | 19.8 | 1.65 | – |
| CC[C@H](CO)Nc1nc(NCc2cccc(OC)c2O)c2ncn(C(C)C)c2n1 | 89 | 2 | 95.9 | 35.4 | 98.5 | 0.641 | – |
| CC[C@H](CO)Nc1nc(NCc2cc(C)ccc2O)c2ncn(C(C)C)c2n1 | 70.4 | 0.4 | 2.2 | 11.8 | 2.3 | 0.162 | – |
| CC[C@H](CO)Nc1nc(NCc2cc(OC)c(O)c(OC)c2)c2ncn(C(C)C)c2n1 | 103 | 8.3 | – | – | – | – | – |
